Results taken from patent publication US4093626A, “β-Lactam antibiotics” (Beecham Group Limited, priority 1976, dated 1978).

Experiments:
[1] = molecular target: β-lactamase enzyme produced by Staphylococcus aureus Russell (Staphylococcus aureus, UniProt P00807); test: Inhibition of the β-lactamase from Staphylococcus aureus Russell (I50); type: biochemical; details: β-lactamase from Staph. aureus Russell
Description: Inhibition of the β-lactamase from Staphylococcus aureus Russell
I50 values were determined using the process described in Belgium Pat. No. 827,926.

Staph. aureus Russell [2] = test: Antibacterial activity (M.I.C.) against Staphylococcus aureus Russell; type: cell-based; details: compound alone
Description: (§1) Antibacterial activity and antibacterial synergy with ampicillin against Staphylococcus aureus Russell

Staph. aureus Russell [3] = test: Antibacterial synergy with ampicillin against Staphylococcus aureus Russell (M.I.C. of ampicillin in presence of compound); type: cell-based; details: inhibitor conc. 20 μg/ml
Description: as §1

Acute toxicity in mice = type: in vivo
Description: The compound (mixture of 2 isomers) from Example 6.2 was tested for acute toxicity in mice as described below.
Mice: CDI, female, 18 - 22 gm. 5 mice per group
The compound was injected in aqueous dimethylformamide (≤15% DMF) at 0.4 ml/20 g for the 2000 mg./Kg. dosage and at 0.2 ml/20 g. for the other dosages.

Chain of β-lactamase enzyme produced by Staphylococcus aureus Russell (P00807 25-281): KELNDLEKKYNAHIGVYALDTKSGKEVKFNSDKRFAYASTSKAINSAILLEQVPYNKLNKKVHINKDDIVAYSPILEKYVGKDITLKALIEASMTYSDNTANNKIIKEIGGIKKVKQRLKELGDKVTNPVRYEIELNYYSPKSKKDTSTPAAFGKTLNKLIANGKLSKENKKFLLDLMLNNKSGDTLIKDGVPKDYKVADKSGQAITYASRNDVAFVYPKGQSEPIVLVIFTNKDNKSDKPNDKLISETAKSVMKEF

Molecule: O=C1C[C@@H]2O[C@@H](CBr)CN12 (racemic) [Example 2.2, (3RS, 5SR)-3-Bromomethyl-4-oxa-1-azabicyclo[3.2.0]heptan-7-one]
- IC50 [1]: 14.6 µM

Molecule: O=C1C[C@@H]2O[C@@H](CSc3ccccc3)CN12 (racemic) [Example 7, (3RS, 5SR)-3-Phenylthiomethyl-4-oxa-1-azabicyclo[3.2.0]heptan-7-one]
- IC50 [1]: 10.2 µM

Molecule: O=C(OC[C@H]1CN2C(=O)C[C@@H]2O1)c1ccc([N+](=O)[O-])cc1 (racemic) [Example 14, (3RS, 5SR)-3-p-Nitrobenzoyloxymethyl-4-oxa-1-azabicyclo[3.2.0]heptan-7-one]
- IC50 [1]: 15.1 µM

Molecule: O=C1C[C@@H]2O[C@@H](COc3ccc([N+](=O)[O-])cc3)CN12 (racemic) [Example 15, (3RS, 5SR)-3-p-Nitrophenoxymethyl-4-oxa-1-azabicyclo[3.2.0]heptan-7-one]
- IC50 [1]: 16.7 µM

Molecule: O=C1C[C@@H]2O[C@@H](CS(=O)(=O)c3ccc([N+](=O)[O-])cc3)CN12 (relative stereo) [Example 0-20]
- IC50 [1]: 5.44 µM

Molecule: O=C(Nc1ccccc1)OC[C@H]1CN2C(=O)C[C@@H]2O1 (relative stereo) [Example 22, (3RS, 5SR)-3-(N-Phenylcarbamoyloxymethyl)-4-oxa-1-azabicyclo[3.2.0]heptan-7-one]
- IC50 [1]: 9.15 µM

Molecule: O=C1C[C@@H]2O[C@@H](C[S+]([O-])c3ccc([N+](=O)[O-])cc3)CN12 (single isomer, unassigned) [Example 20 (isomer I), (3RS, 5SR)-3-p-Nitrophenylsulphinylmethyl-4-oxa-1-azabicyclo[3.2.0] heptan-7-one]
- IC50 [1]: 2.7 µM

Molecule: (3RS, 5RS)- and (3RS, 5SR)-3-(2-Bromoethyl)-4-oxa-1-azabicyclo[3.2.0]heptan-7-one [Example 6.2]
- M.I.C. (Staph. aureus Russell [2]): 500 µg/mL
- M.I.C. Ampicillin (Staph. aureus Russell [3]): 0.4 µg/mL
- Number of mice alive (Acute toxicity in mice; 250 mg./Kg. subcutaneous, Day 2): 5/5
- Number of mice alive (Acute toxicity in mice; 250 mg./Kg. subcutaneous, Day 3): 5/5
- Number of mice alive (Acute toxicity in mice; 250 mg./Kg. subcutaneous, Days 0 and 1): 5/5
- Number of mice alive (Acute toxicity in mice; 250 mg./Kg. subcutaneous, Days 4 to 7): 5/5
- Number of mice alive (Acute toxicity in mice; 500 mg./Kg. subcutaneous, Day 2): 5/5
- Number of mice alive (Acute toxicity in mice; 500 mg./Kg. subcutaneous, Day 3): 5/5
- Number of mice alive (Acute toxicity in mice; 500 mg./Kg. subcutaneous, Days 0 and 1): 5/5
- Number of mice alive (Acute toxicity in mice; 500 mg./Kg. subcutaneous, Days 4 to 7): 5/5
- Number of mice alive (Acute toxicity in mice; 1000 mg./Kg. subcutaneous, Day 2): 5/5
- Number of mice alive (Acute toxicity in mice; 1000 mg./Kg. subcutaneous, Day 3): 5/5
- Number of mice alive (Acute toxicity in mice; 1000 mg./Kg. subcutaneous, Days 0 and 1): 5/5
- Number of mice alive (Acute toxicity in mice; 1000 mg./Kg. subcutaneous, Days 4 to 7): 5/5
- Number of mice alive (Acute toxicity in mice; 2000 mg./Kg. subcutaneous, Day 2): 3/5
- Number of mice alive (Acute toxicity in mice; 2000 mg./Kg. subcutaneous, Day 3): 2/5
- Number of mice alive (Acute toxicity in mice; 2000 mg./Kg. subcutaneous, Days 0 and 1): 5/5
- Number of mice alive (Acute toxicity in mice; 2000 mg./Kg. subcutaneous, Days 4 to 7): 2/5
- Survival and weight gain of remaining mice (Acute toxicity in mice; 2000 mg./Kg. subcutaneous, end of observation period (7 days)): the other two remained alive and had gained weight
- Deaths (Acute toxicity in mice; 2000 mg./Kg. subcutaneous, within 3 days): three out of the five mice were dead
- Survival and weight gain over the observation period (Acute toxicity in mice; dosages up to 100 mg./Kg. subcutaneous, 7 days): all mice remained alive and gained in weight
